Measured values reported in patent US20240141061A1, “NOVEL ANTIBODY AGAINST CD55 AND USE THEREOF” (SG MEDICAL INC, priority 2021, published 2024).
One block for each molecule: values may come before it.

Assays:
PC9-GR cells = assay: Apoptosis by FACS in gefitinib-resistant PC9-GR cells; type: cell-based; conditions: 5 μg/mL gefitinib alone, 24 hours
Method: (§1) 24 hours later, after treating with 5 μg/mL gefitinib or 5 μg/mL gefitinib and 5 μg/mL 4-1H or EP-10H diluted with 500 μL of RPMI, the cells were cultured again for 24 hours under the condition of 37° C. and 5% CO2. Then, apoptotic cells were analyzed with the FACS analysis equipment Attune N×T using 7-AAD and an FITC annexin V apoptosis detection kit (FIG. 7b).

PC9 NSCLC cells = assay: Apoptosis by FACS in PC9 NSCLC cells; type: cell-based; conditions: 5 μg/mL gefitinib alone, 24 hours
Method: as §1

K562-IR cells = assay: Apoptosis by FACS in imatinib-resistant K562-IR cells; type: cell-based; conditions: 2 μM imatinib alone, 24 hours
Method: (§2) Immediately thereafter, the cells were treated with 2 μM imatinib or with 2 μM imatinib and 10 μg/mL 4-1H or EP-10H diluted with 500 μL of RPMI, and then cultured under the condition of 37° C. and 5% CO2 for 24 hours. Then, apoptotic cells were analyzed with the FACS analysis equipment Attune N×T using 7-AAD and an FITC annexin V apoptosis detection kit (FIG. 6b).

K562 cells = assay: Apoptosis by FACS in K562 cells; type: cell-based; conditions: 2 μM imatinib alone, 24 hours
Method: as §2

[1] = system: Burkitt lymphoma BJAB cells; assay: CDC / apoptosis by FACS (annexin V/7-AAD) in BJAB cells with complement human serum; type: cell-based; conditions: 20 μg/mL rituximab alone, 50% complement human serum, 1 hour
From the text: BJAB cells have complement resistance and this is due to the expression of CD55 (Golay, et al., Blood, 95 (12):3900-8, 2000). For this reason, they show low response to rituximab the main therapeutic mechanism of which is CDC (complement-dependent cytotoxicity). In order to confirm the possibility of improving the therapeutic effect of rituximab for Burkitt lymphoma, which is known as malignant B cell lymphoma, the apoptotic ability of co-administration with EP-10H in Burkitt lymphoma BJAB cells was investigated. For investigation of the effect of co-administration, 5×10^5 BJAB cells were cultured for 1 hour under the condition of 37° C. and 5% CO2 after treating with 100 μL of RPMI supplemented with 50% complement human serum (Sigma, USA), containing 50 μg/mL of 4-1H or EP-10H and 20 μg/mL of rituximab. Then, CDC was observed by identifying apoptotic cells with Attune N×T (ThermoFisher Scientific, USA), which is a FACS analysis equipment, using an FITC annexin V apoptosis detection kit with 7-AAD (BioLegend, USA) (FIG. 4). […] It was confirmed that this effect was more significant for EP-10H having higher affinity for CD55.
The apoptotic ability of the CD20×CD55 bispecific antibody was investigated by the method of Example 10-1. […]

Ramos cells = assay: CDC / apoptosis by FACS in Ramos cells with complement human serum; type: cell-based; conditions: rituximab alone, method of Example 10-1
Ramos-RR cells = assay: CDC / apoptosis by FACS in rituximab-resistant Ramos-RR cells with complement human serum; type: cell-based; conditions: rituximab alone, method of Example 10-1
[2] = molecular target: T1, CD55 on cells (BJAB, Ramos, Ramos-RR, K562, K562-IR, PC9, PC9-GR) (UniProt P08174 35-353, limits assumed); assay: flow cytometry, Ramos and Ramos-RR cells stained with 10 µg/mL EP-10H and anti-human IgG Alexa Fluor 488
T1 construct: whole, on cells; Endogenous CD55 on cell lines used for flow cytometry and cell death assays; also called CD55 receptor
T1 sequence (looked up): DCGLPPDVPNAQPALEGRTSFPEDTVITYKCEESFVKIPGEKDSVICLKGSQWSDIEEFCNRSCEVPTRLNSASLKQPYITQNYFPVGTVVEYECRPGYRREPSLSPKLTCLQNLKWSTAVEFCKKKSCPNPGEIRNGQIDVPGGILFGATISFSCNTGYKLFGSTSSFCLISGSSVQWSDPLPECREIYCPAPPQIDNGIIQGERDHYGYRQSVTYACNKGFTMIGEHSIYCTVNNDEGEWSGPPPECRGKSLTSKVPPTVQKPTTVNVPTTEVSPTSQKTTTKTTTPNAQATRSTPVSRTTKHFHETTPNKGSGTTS
Method: 5×10⁵ Ramos or Ramos-RR cells were suspended in PBS containing or not containing 10 μg/mL of the EP-10H monoclonal antibody and cultured at 4° C. for 1 hour. The culture was centrifuged at 4,000 rpm for 5 minutes and centrifuged again at 4,000 rpm for 5 minutes after washing with 100 μL of PBS. After treating the cells with goat anti-human IgG antibody diluted to 1:100 using PBS and Alexa Fluor 488 (ThermoFisher Scientific, USA), they were incubated at 4° C. for 30 minutes in the shade. The fluorescence-stained cells were washed with PBS, suspended in 400 μL of PBS and then analyzed using Attune N×T (ThermoFisher Scientific, USA), which is a FACS analysis equipment.

[3] = molecular target: T2, recombinant human CD55 (R&D Systems 2009-CD/CF) (human, UniProt P08174 35-353); assay: indirect ELISA, recombinant human CD55 coated
T2 construct: Bought recombinant protein coated on ELISA plates; also called decay-accelerating factor; DAF
T2 sequence (looked up): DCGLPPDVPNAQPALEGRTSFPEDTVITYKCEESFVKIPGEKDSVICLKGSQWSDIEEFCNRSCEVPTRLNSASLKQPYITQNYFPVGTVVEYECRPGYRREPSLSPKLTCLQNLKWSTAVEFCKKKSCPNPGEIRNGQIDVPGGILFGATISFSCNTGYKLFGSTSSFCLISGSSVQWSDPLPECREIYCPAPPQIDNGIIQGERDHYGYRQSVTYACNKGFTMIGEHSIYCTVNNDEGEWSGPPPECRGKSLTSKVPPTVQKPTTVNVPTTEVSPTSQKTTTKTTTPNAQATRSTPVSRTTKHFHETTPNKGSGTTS

Molecule: COc1cc2ncnc(Nc3ccc(F)c(Cl)c3)c2cc1OCCCN1CCOCC1 [Gefitinib, gefitinib, reference compound]
induction of apoptosis (PC9-GR cells): did not show the effect
induction of apoptosis (PC9 NSCLC cells): induced apoptosis

Molecule: Cc1ccc(NC(=O)c2ccc(CN3CCN(C)CC3)cc2)cc1Nc1nccc(-c2cccnc2)n1 [Imatinib, imatinib, reference compound]
induction of apoptosis (K562-IR cells): did not show the effect
induction of apoptosis (K562 cells): induced apoptosis

Molecule: rituximab [reference compound]
response to rituximab (CDC, apoptotic cells) [1]: low response
induction of apoptosis (Ramos cells): induced apoptosis
induction of apoptosis (Ramos-RR cells): the induction of apoptosis in the Ramos-RR cells was lower than in the Ramos cells

binding result [2]: binds
binding result [3]: binds
B1: EP-10H (antibody, V domains shown)
VH: EVQLVESGGGLVQPGGSLRLSCAASGFTFSDRGMAWVRQAPGKGLEWVSGISSSGRYTYYAPAVKGRATISRDNSKNTLYLQMNSLRAEDTAVYYCAKNAVAGGWHAAYIDAWGQGTTVTVSS
VL: SYELTQPPSVSVSPGQTASITCSGGGGSYGWYQQKPGQSPVTVIYWNDKRPSGIPERFSGSKSGNTATLTISGTQAMDEADYYCGGWDSSTYAIFGGGTKLTVL
notes: Tested as full-length IgG; Differs from G4-1H only at the H100A site (G to V); also called EP-10H monoclonal antibody; EP-10H antibody
